# Source: patent publication US20180024136A1, “Development of ABCG2-Sensitive Fluorescent Probe For Isolation of ABCG2low Neural Stem/Progenitor Cells” (National University of Singapore, priority 2015, published 2018)
# Assay: Spectroscopic properties of CF library (absorbance, emission, quantum yield, extinction coefficient)
# Assay type: physicochemical
# Conditions: 100 μM in ethanol; for QY (Φ): reference fluorescein
# Protocol: All the chemicals and solvents were purchased from Sigma Aldrich, Alfa Aesar, Fluka, MERCK, Tocris or Acros, and used without further purification. Normal phase purifications were carried out using Merck Silica Gel 60 (particle size: 0.040-0.063 mm, 230-400 mesh). Analytical characterization was performed on a HPLC-MS (Agilent-1200 series) with a DAD detector and a single quadrupole mass spectrometer (6130 series) with an ESI probe. ^1H-NMR and ^13C-NMR spectra were recorded on Bruker Avance 300 MHz NMR spectrometers, and chemical shifts are expressed in parts per million (ppm) and coupling constants are reported as a J value in Hertz (Hz). High resolution mass spectrometry (HRMS) data was recorded on a Micro mass VG 7035 (Mass Spectrometry Laboratory at National University of Singapore (NUS)). Spectroscopic and quantum yield data were measured on spectroscopic measurements, performed on a fluorometer and UV/VIS instrument, Synergy 4 of Bioteck Company. The slit width was 1 nm for both excitation and emission, and the data analysis was performed using GraphPrism 5.0.
Compound,Abs (nm),Em (nm),QY (Φ)
CCCCCCCCCCCCCCNC(=O)c1ccc(-c2c3cc(Cl)c(=O)cc-3oc3cc(O)c(Cl)cc23)cc1 [CF-A2],520,558,0.42
CCC(NC(=O)c1ccc(-c2c3cc(Cl)c(=O)cc-3oc3cc(O)c(Cl)cc23)cc1)c1ccccc1 (stereo not drawn) [CF-A3],520,559,0.40
CCCCCCCCCCCCCNC(=O)c1ccc(-c2c3cc(Cl)c(=O)cc-3oc3cc(O)c(Cl)cc23)cc1 [CF-A4],520,558,0.26
O=C(c1ccc(-c2c3cc(Cl)c(=O)cc-3oc3cc(O)c(Cl)cc23)cc1)N1CCc2ccccc2C1 [CF-A5],520,556,0.75
CC(Cc1ccccc1)NC(=O)c1ccc(-c2c3cc(Cl)c(=O)cc-3oc3cc(O)c(Cl)cc23)cc1 (stereo not drawn) [CF-A6],520,557,0.43
O=C(NCc1c(F)cccc1F)c1ccc(-c2c3cc(Cl)c(=O)cc-3oc3cc(O)c(Cl)cc23)cc1 [CF-A7],520,560,0.58
O=C(NCc1ccc(OC(F)(F)F)cc1)c1ccc(-c2c3cc(Cl)c(=O)cc-3oc3cc(O)c(Cl)cc23)cc1 [CF-A8],520,558,0.37
O=C(NC1CCCCC1)c1ccc(-c2c3cc(Cl)c(=O)cc-3oc3cc(O)c(Cl)cc23)cc1 [CF-A9],520,557,0.63
CN(C(=O)c1ccc(-c2c3cc(Cl)c(=O)cc-3oc3cc(O)c(Cl)cc23)cc1)C1CCCCC1 [CF-A10],520,558,0.63
CCCN(CCC)C(=O)c1ccc(-c2c3cc(Cl)c(=O)cc-3oc3cc(O)c(Cl)cc23)cc1 [CF-A11],520,558,0.36
O=C(NC1CC1)c1ccc(-c2c3cc(Cl)c(=O)cc-3oc3cc(O)c(Cl)cc23)cc1 [CF-B2],520,558,0.53
COCCNC(=O)c1ccc(-c2c3cc(Cl)c(=O)cc-3oc3cc(O)c(Cl)cc23)cc1 [CF-B3],520,557,0.32
CCCCN(CC)C(=O)c1ccc(-c2c3cc(Cl)c(=O)cc-3oc3cc(O)c(Cl)cc23)cc1 [CF-B4],520,556,0.90
CCCCC(CC)COCCCNC(=O)c1ccc(-c2c3cc(Cl)c(=O)cc-3oc3cc(O)c(Cl)cc23)cc1 (stereo not drawn) [CF-B5],520,559,0.54
CN(Cc1ccccc1)C(=O)c1ccc(-c2c3cc(Cl)c(=O)cc-3oc3cc(O)c(Cl)cc23)cc1 [CF-B6],520,558,0.77
O=C(c1ccc(-c2c3cc(Cl)c(=O)cc-3oc3cc(O)c(Cl)cc23)cc1)N1CCCC1 [CF-B7],520,556,0.70

Compound,Abs (nm),Em (nm),QY (Φ)
CC(C)NC(=O)c1ccc(-c2c3cc(Cl)c(=O)cc-3oc3cc(O)c(Cl)cc23)cc1 [CF-B8],520,559,0.57
CCCCC(CC)CNC(=O)c1ccc(-c2c3cc(Cl)c(=O)cc-3oc3cc(O)c(Cl)cc23)cc1 (stereo not drawn) [CF-B9],520,558,0.60
COc1ccc(CCNC(=O)c2ccc(-c3c4cc(Cl)c(=O)cc-4oc4cc(O)c(Cl)cc34)cc2)cc1OC [CF-B10],520,559,0.56
CCCCCCCNC(=O)c1ccc(-c2c3cc(Cl)c(=O)cc-3oc3cc(O)c(Cl)cc23)cc1 [CF-B11],520,558,0.66
CC(C)N(Cc1ccccc1)C(=O)c1ccc(-c2c3cc(Cl)c(=O)cc-3oc3cc(O)c(Cl)cc23)cc1 [CF-C2],520,559,0.78
CCCCCCCCNC(=O)c1ccc(-c2c3cc(Cl)c(=O)cc-3oc3cc(O)c(Cl)cc23)cc1 [CF-C3],520,559,0.37
COc1cccc(CNC(=O)c2ccc(-c3c4cc(Cl)c(=O)cc-4oc4cc(O)c(Cl)cc34)cc2)c1 [CF-C4],520,559,0.55
COc1ccc(CCNC(=O)c2ccc(-c3c4cc(Cl)c(=O)cc-4oc4cc(O)c(Cl)cc34)cc2)cc1 [CF-C5],520,558,0.63
CCCN(CC1CC1)C(=O)c1ccc(-c2c3cc(Cl)c(=O)cc-3oc3cc(O)c(Cl)cc23)cc1 [CF-C6],520,554,0.58
CC1CCCCC1NC(=O)c1ccc(-c2c3cc(Cl)c(=O)cc-3oc3cc(O)c(Cl)cc23)cc1 (stereo not drawn) [CF-C7],520,558,0.42
CC(C)CCNC(=O)c1ccc(-c2c3cc(Cl)c(=O)cc-3oc3cc(O)c(Cl)cc23)cc1 [CF-C8],520,558,0.68
O=C(NC1CCCCCC1)c1ccc(-c2c3cc(Cl)c(=O)cc-3oc3cc(O)c(Cl)cc23)cc1 [CF-C9],520,558,0.50
Cc1ccc(CCNC(=O)c2ccc(-c3c4cc(Cl)c(=O)cc-4oc4cc(O)c(Cl)cc34)cc2)cc1 [CF-C10],520,558,0.54
O=C(NCCCN1CCCC1=O)c1ccc(-c2c3cc(Cl)c(=O)cc-3oc3cc(O)c(Cl)cc23)cc1 [CF-D2],520,557,0.61
CC1CN(C(=O)c2ccc(-c3c4cc(Cl)c(=O)cc-4oc4cc(O)c(Cl)cc34)cc2)CC(C)O1 (stereo not drawn) [CF-D3],520,555,0.47

# Continued, values first:
Abs (nm),Em (nm),QY (Φ),Compound
520,555,0.69,CN(CCc1ccccc1)C(=O)c1ccc(-c2c3cc(Cl)c(=O)cc-3oc3cc(O)c(Cl)cc23)cc1 [CF-D4]
520,555,0.66,CCN(Cc1ccccc1)C(=O)c1ccc(-c2c3cc(Cl)c(=O)cc-3oc3cc(O)c(Cl)cc23)cc1 [CF-D5]
520,555,0.32,CCCCCCCCCCCCCCCCCCNC(=O)c1ccc(-c2c3cc(Cl)c(=O)cc-3oc3cc(O)c(Cl)cc23)cc1 [CF-D6]
520,555,0.54,Cc1cccc(CN(C)C(=O)c2ccc(-c3c4cc(Cl)c(=O)cc-4oc4cc(O)c(Cl)cc34)cc2)c1 [CF-D7]
520,558,0.47,O=C(NC1Cc2ccccc2C1)c1ccc(-c2c3cc(Cl)c(=O)cc-3oc3cc(O)c(Cl)cc23)cc1 [CF-D8]
520,558,0.25,CCCNC(=O)c1ccc(-c2c3cc(Cl)c(=O)cc-3oc3cc(O)c(Cl)cc23)cc1 [CF-D9]
520,558,0.59,O=C(NCCC(c1ccccc1)c1ccccc1)c1ccc(-c2c3cc(Cl)c(=O)cc-3oc3cc(O)c(Cl)cc23)cc1 [CF-D10]
520,558,0.44,O=C(NCCCCc1ccccc1)c1ccc(-c2c3cc(Cl)c(=O)cc-3oc3cc(O)c(Cl)cc23)cc1 [CF-D11]
520,557,0.63,O=C(NCc1c(Cl)cccc1Cl)c1ccc(-c2c3cc(Cl)c(=O)cc-3oc3cc(O)c(Cl)cc23)cc1 [CF-E2]
520,554,0.66,CCCCN(CCCC)C(=O)c1ccc(-c2c3cc(Cl)c(=O)cc-3oc3cc(O)c(Cl)cc23)cc1 [CF-E3]
520,558,0.47,CCOCCCNC(=O)c1ccc(-c2c3cc(Cl)c(=O)cc-3oc3cc(O)c(Cl)cc23)cc1 [CF-E4]
520,556,0.58,O=C(NC1CCCC1)c1ccc(-c2c3cc(Cl)c(=O)cc-3oc3cc(O)c(Cl)cc23)cc1 [CF-E5]
520,557,0.29,CC(C)C(C)NC(=O)c1ccc(-c2c3cc(Cl)c(=O)cc-3oc3cc(O)c(Cl)cc23)cc1 (stereo not drawn) [CF-E6]
520,557,0.46,COc1cccc(CCNC(=O)c2ccc(-c3c4cc(Cl)c(=O)cc-4oc4cc(O)c(Cl)cc34)cc2)c1OC [CF-E7]
520,559,0.34,COc1ccccc1CCNC(=O)c1ccc(-c2c3cc(Cl)c(=O)cc-3oc3cc(O)c(Cl)cc23)cc1 [CF-F8]
520,557,0.34,CC(C)OCCCNC(=O)c1ccc(-c2c3cc(Cl)c(=O)cc-3oc3cc(O)c(Cl)cc23)cc1 [CF-F9]
520,559,0.35,CCCCCCN(C)C(=O)c1ccc(-c2c3cc(Cl)c(=O)cc-3oc3cc(O)c(Cl)cc23)cc1 [CF-F10]
